Data published in article PMC5602112 (2017).

Columns and labels:
Assay in all cases: single-round in vitro transcription termination
Conditions in all cases: apparent; co-transcriptional
[1] = tested on: metI SAM-I riboswitch transcript, U114A:A138U (RNA, riboswitch) ACUUAGAAAAUUGAAAUCGAUAUUUCUUAUCGUGAGAGGUGGAGGGACUGGCCCUUAGAAACCUCAGCAACCGGCUUGUUUUGCAUUUGCAAAGCGCCAAGGUGCUAAAACCAGCAAGCGUUUUUUAUGCUUGGAUGAUAAGAAGAAGCGUUAAACCCCUUCUUCUUAUGAAGAAGGGGUUUUUAUUUUGAAAAGGGAAGGUGUCAGCUAUAUGUCACAGCACGUUGAAACGAAAUUAGCUCAAAUUGGGAA
[2] = tested on: metI SAM-I riboswitch transcript, GUU (U114A:A137U:A138U) (RNA, riboswitch) ACUUAGAAAAUUGAAAUCGAUAUUUCUUAUCGUGAGAGGUGGAGGGACUGGCCCUUAGAAACCUCAGCAACCGGCUUGUUUUGCAUUUGCAAAGCGCCAAGGUGCUAAAACCAGCAAGCGUUUUUUAUGCUUGGUUGAUAAGAAGAAGCGUUAAACCCCUUCUUCUUAUGAAGAAGGGGUUUUUAUUUUGAAAAGGGAAGGUGUCAGCUAUAUGUCACAGCACGUUGAAACGAAAUUAGCUCAAAUUGGGAA
[3] = tested on: metI SAM-I riboswitch transcript, wild-type (RNA, riboswitch) ACUUAGAAAAUUGAAAUCGAUAUUUCUUAUCGUGAGAGGUGGAGGGACUGGCCCUUAGAAACCUCAGCAACCGGCUUGUUUUGCAUUUGCAAAGCGCCAAGGUGCUAAAUCCAGCAAGCGUUUUUUAUGCUUGGAAGAUAAGAAGAAGCGUUAAACCCCUUCUUCUUAUGAAGAAGGGGUUUUUAUUUUGAAAAGGGAAGGUGUCAGCUAUAUGUCACAGCACGUUGAAACGAAAUUAGCUCAAAUUGGGAA

SMILES: C[S+](CC[C@H](N)C(=O)O)C[C@H]1O[C@@H](n2cnc3c(N)ncnc32)[C@H](O)[C@@H]1O (stereo partly drawn)
- T50 [1]: ~ 673 nM
- T50 [2]: ~ 1.3 µM
- T50 [3]: ~ 183 nM
